1 molecule from US10323036B2 (Nimbus Lakshmi, Inc., priority 2016, dated 2019) can be followed below.

Test [1] has as its target human TYK2 (JH2domain-pseudokinase) (Homo sapiens (Human), UniProt P29597). Nature of the test: TYK2 JH2 Domain Binding Assay (KINOMEscan). The note with it: Table 5, Tyk2 JH2 Domain Binding Assay; read-out: JH2 Kd.
For another test, the system named is GM-CSF induced pSTAT5. Briefly: GM-CSF Induced pSTAT5 in Human PBMC. The format is cell-based. The note with it: 5 ng/mL GM-CSF, read-out: IC50 of inhibition of pSTAT5 production. Here is the method: Cells are prepared for analysis as in the above procedure and 15 μl of GM-CSF (final concentration 5 ng/mL) is added for 20 minutes prior to pSTAT5 and total STAT5 analysis using cell lysates prepared and analyzed by MSD reagents as per manufacturer protocol. The final DMSO concentration of compound in the assay is 0.1%.

human TYK2 (JH2domain-pseudokinase), sequence (P29597 556-888): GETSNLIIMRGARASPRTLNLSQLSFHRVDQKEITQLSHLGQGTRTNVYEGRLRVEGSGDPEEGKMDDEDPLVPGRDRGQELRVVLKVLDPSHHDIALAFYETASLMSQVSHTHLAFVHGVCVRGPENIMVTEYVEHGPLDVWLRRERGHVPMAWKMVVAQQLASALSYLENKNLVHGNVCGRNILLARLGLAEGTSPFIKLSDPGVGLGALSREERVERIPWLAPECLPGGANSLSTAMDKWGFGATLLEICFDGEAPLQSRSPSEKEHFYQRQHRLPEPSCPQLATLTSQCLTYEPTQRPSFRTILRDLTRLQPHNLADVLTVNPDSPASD

Regarding `COc1c(Nc2cc(NC(=O)C3CC3)ncc2-c2ncc(Cl)s2)cccc1-c1nnn(C)n1` [VIII-1, N-(5-(5-chlorothiazol-2-yl)-4-((2-methoxy-3-(2-methyl-2H-tetrazol-5-yl)phenyl)amino)pyridin-2-yl)cyclopropanecarboxamide], in test [1], the dissociation constant (Kd) fell in the range of 1 to 10 nM. Further, the IC50 with GM-CSF induced pSTAT5 was above 50000 nM.
